# Laboratory results as given in paper PMC9716045 (Journal of Pesticide Science, 2022).
# Tests used:
# [1] = system: DHODH of mice; conditions: read-out: IC50 value for DHODH; cited from earlier work
# [2] = system: DHODH of rats; conditions: read-out: IC50 value for DHODH; cited from earlier work
# [3] = system: DHODH of humans; conditions: read-out: IC50 value for DHODH; cited from earlier work
# [4] = system: DHODH of A. fumigatus; conditions: read-out: IC50 value for DHODH; cited from earlier work
# [5] = system: P. oryzae 40901; assay type: cell-based, Pyricularia oryzae
# [6] = system: P. oryzae; assay type: cell-based, Pyricularia oryzae
# [7] = system: Fusarium graminearum; conditions: cited from earlier work
# [8] = system: Sclerotinia sclerotiorum; conditions: cited from earlier work
structure (smiles),measurement,setting,value
"C/C(O)=C(\C#N)C(=O)Nc1ccc(C(F)(F)F)cc1 [A77-1726, teriflunomide]",IC50,[1],82 ± 21 nM
same,IC50,[2],18 ± 3 nM
same,IC50,[3],773 ± 78 nM
"Cc1cc(-c2ccccc2)c(C(=O)C(=O)Nc2ccc(N3CCN(c4ncc(F)cn4)CC3)cc2)n1C [F901318, olorofim]",IC50,[4],44 ± 10 nM
"CC1(C)N=C(c2cnc3ccccc3c2)c2ccccc2C1(F)F [quinofumelin, 3-(4,4-difluoro-3,3-dimethyl-3,4-dihydroisoquinolin-1-yl)quinoline]",mycelial growth on minimal medium agar plates,[5],could not be recognized
same,mycelial growth with exogenous orotate at high quinofumelin concentration,[5],slow mycelial growth
same,recovery of mycelial growth by exogenous dihydroorotate,[5],did not recover
same,recovery of mycelial growth by exogenous orotate,[5],recovered
same,recovery of mycelial growth by exogenous uracil,[5],restored
same,antifungal activity on PDA medium,[6],moderate antifungal activity
same,antifungal activity on PDA medium,[7],strong antifungal activity
same,antifungal activity on PDA medium,[8],strong antifungal activity
